These results are taken from patent US20040209273A1, “Plant stress-regulated genes” (priority 2001, published 2004).

One data set concerns tobacco leaf discs. Description: Ion leakage (solute conductance) from tobacco leaf discs floated on methyl viologen solutions. On the set-up: species or system Nicotiana tabacum. The protocol:
Nicotiana tabacum cv. Petit Havana SR1 plants were grown in a controlled environment chamber (Weiss Technik, Lindenstruth, DE) under 100 μmol/m^2/s light intensity (photosynthetically active radiation), 16 hours light/8 hours dark regime, relative humidity of 70% and constant temperature of 24° C. The most expanded leaves (11-12 cm long×7-8 cm wide) from five week old plants were used for experiments with methyl viologen.
Leaf discs (1 cm in diameter) were punched with a cork-bore from the interveinal part of the leaf. Three leaf discs, each originating from different plants, were floated with the abaxial side up on 12 ml of methyl viologen solution in nanopure water or water solely in the case of control. Treatments were performed in controlled environment chambers, under the same conditions as for growth, except as otherwise indicated. Leaf discs for RNA extraction were drained on paper, rapidly frozen in liquid nitrogen and stored at −70° C. Ion leakage from the leaf discs was measured as conductivity of the solution using a conductivity meter (Consort, Turnhout, BE)
As a first step in studying adaptive responses to oxidative stress in tobacco, we wanted to establish an experimental system in which low doses of oxidant would induce adaptation to higher doses of the same compound. MV, a redox-active compound that enhances superoxide radical (O2 ? ) formation mainly in chloroplasts, was used as an oxidant. In order to determine MV concentrations suited for the induction of adaptation and for the subsequent oxidative stress treatment, sensitivity of tobacco to MV was first determined. Leaf discs were floated on solutions with different concentrations of MV and ion leakage was monitored by measuring the solute conductance. If not scavenged, superoxide generated by MV is converted through redox-reactions into other active oxygen species (AOS) such as hydroxyl radicals that interact with biological molecules and cause oxidative damage (Halliwell and Gutteridge, 1989). Peroxidation of membrane lipids results in loss of membrane integrity that is reflected by enhanced cellular ion leakage. […] These concentrations thus seemed most suitable for inducing adaptation to MV.
To test whether exposure to sublethal amounts of MV enhances tolerance to higher, normally toxic amounts of this compound, tobacco leaf discs were floated on solutions with less than 0.2 μM MV and subsequently transferred to solutions within the molar range of 0.2-2 μM. Increase in tolerance was assessed by measuring the solute conductance. Leaf discs pretreated with water were taken as nonadapted controls. […]

The subject of data set [1] is Gpx, SodCc and differential-display genes (mRNA). Description: Northern analysis of gene expression in leaf discs during MV pretreatment and treatment. On the set-up: species or system Nicotiana tabacum. The protocol:
Total RNA was extracted from frozen leaf discs using TRIzol™ Reagent (Life Technologies, Paisley, UK) according to the manufacturer's instructions. RNA samples were treated prior to electrophoresis and resolved on 1% agarose gel as described by Shaul et al. (1996). The RNA was blotted on nylon membrane (Hybond-N, Amersham International plc., Buckinghamshire, UK or Qiabrane, Qiagen GmbH, Hilden, DE) by capillary blotting (Maniatis et al., 1982). RNA was fixed to the membrane by cross-linking at 150 mJ/cm^2. To check the quality of RNA prior to hybridization, membranes were incubated for 15 minutes in 5% acetic acid and stained for five minutes in 0.04% methylene blue in 0.5 M sodium acetate (pH 5.2), and rinsed with water. After the staining and quality check, membranes were destained in 0.1×SSC (Maniatis et al., 1982) containing 0.5% SDS (w/v). Membranes were hybridized at 65° C. in 50% formamide, 5×SSC, 0.5% SDS and 10% dextran sulphate. ^32P-labeled RNA probes corresponding to the cDNA fragments of GPx (Criqui et al., 1992), SodCc (PSOD 3-5′ fragment; Tsang et al., 1991), SodB (pSOD 2-5′ fragment; Tsang et al., 1991), Cat1 (pCat1A; Willekens et al., 1994), and N. tabacum actin (pRVA12; Aventis Crop Science, BE) were generated by the Riboprobe® System (Promega Corp., Madison, Wis., USA). RNA probes corresponding to cDNA fragments isolated by differential display and cloned into pGEM®-T vector (Promega Corp., Madison, Wis., USA) were generated according to the same protocol. Membranes were washed at 65° C. for 15 minutes each in 3×SSC (Maniatis et al., 1982), 1×SSC and 0.1×SSC (stringent washing) containing 0.5% SDS (w/v). Membranes were exposed to the Storage Phosphor Screen and scanned with the Phosphorlmager 445 SI (Molecular Dynamics Inc., Sunnyvale, Calif., USA). Membranes were reused after stripping of the probe in 0.1×SSC at 85° C. Removal of the probe was checked by autoradiography.
mRNA levels of several antioxidant genes were tested by Northern analysis during the pretreatment and the treatment. […]

The test system of another data set is tobacco leaf disc mRNA. Description: Differential mRNA display of MV-pretreated versus water-pretreated leaf discs. To be noted: 0.1 μM MV for 17 hours; estimated from sequencing data. On the set-up: species or system Nicotiana tabacum. Here is the method: Total RNA was treated with DNaseI prior to RT-PCR according to the manufacturer's instructions (Life Technologies, Paisley, UK). Alternatively, up to 20 μg of total RNA was incubated with 5 U DNaseI, 18 U Recombinant Ribonuclease Inhibitor (Promega Corp., Madison, Wis., USA), 1 mM DTT in 80 μl of 10 mM Tris-Cl, pH 8.3, 50 mMKCl and 1.5 mM MgCl2 for 30 minutes at 37° C. RNA was extracted with phenol/CHCl3 (3:1), ethanol precipitated and dissolved in diethyl pyrocarbonate-treated water. mRNA differential display was performed with the RNA map™ kit (Gene Hunter Corp., Nashville, Tenn., USA), AmliTaq DNA polymerase (Perkin-Elmer, Branchburg, N.J., USA) and [^33P] dATP (0.2 μl/20 μl PCR reaction of 111 000 GBq/mmol; Isotopchim, Ganagobie-Peyruis, FR). 3.5 μl of each PCR reaction was mixed with 2 μl of loading dye and denatured at 95° C. for five minutes prior to loading onto 6% DNA sequencing gel. […]
In order to identify which genes other than those encoding antioxidant enzymes would show altered mRNA levels during oxidative stress adaptation, reference samples placed in water for 17 hours, or samples pretreated with 0.1 μM MV for 17 hours (adapted leaf discs), were compared by differential mRNA display. […] Expression of 16 genes was further analyzed by Northern analysis with RNA from an independent experiment. […]

Another data set relates to A. thaliana plants. Description: Growth of Arabidopsis seedlings on plates containing methyl viologen. The format is in vivo, Arabidopsis thaliana. To be noted: 2 μM MV in ½ MS, 1% sucrose; three to four weeks; transformed lines and C24 control. The protocol:
Eighty plants of an F2-progeny of the transgenic line WV4 (construct pWRKY-VP16-pGSJ780A) were grown on MS+Kanamycine for two and a half weeks. Fifteen kanamycine-resistant seedlings were transferred to plates containing ½ MS, 1% sucrose and 2 μM methyl viologen (paraquat) or to plates containing ½ MS, 1% sucrose for the controls.
Wild-type Arabidopsis plants were treated in a similar way (except for selection on Kanamycine).
Performance of plants was followed and pictures were taken after approximately three weeks.
Segregating populations (F2) of A. thaliana plants (C 24) transformed with WRKY11 under control of the 35S promoter (35S—WRKY11) or with WRKY11 fused to the VP16 activation domain under control of the 35S promoter (35S—WRKY11-VP16) were grown on MS media with kanamycine. Approximately three-week-old seedlings resistant to kanamycine from 3:1 segregating lines (WV4 and WV9 WRKY11-VP16 transformed lines) were transferred to the solid media containing ½ MS salts, 1% sucrose and 2 μM methyl viologen (MV) or on plates without MV. As control plants, untransformed A. thaliana plants were used (C24). After three to four weeks, phenotypic differences were assessed.

For `C[n+]1ccc(-c2cc[n+](C)cc2)cc1` [MV, methyl viologen], the “leaf damage measured as solute conductance versus applied dose” value with tobacco leaf discs (0.2-2 μM MV) is “clearly correlated with the applied dose of MV”. The “visible damage of leaf discs” value in the data set with tobacco leaf discs (concentrations lower than 0.2 μM MV, after 42 hours of incubation) is listed as “no visible damage”. In addition, the “increase in ion leakage from the leaf discs in comparison with water-treated controls” value in the data set with tobacco leaf discs (concentrations lower than 0.2 μM MV, up to 42 hours of incubation) is recorded as “very little increase in ion leakage”. Moreover, the “protection against MV compared to water-pretreated control samples (solute conductance)” value in the data set on tobacco leaf discs (pretreated with 0.1 μM MV for 17 hours, then treated with 1 μM MV for 11 hours, mean) is recorded as 40%. Further, the “expression of all Table 2 genes except DIOX” value in data set [1] (after 12 hours of the pretreatment with 0.1 μM MV) is “induced”; in data set [1] (during the treatment with 1 μM MV, induction started within the first three hours), “further induced”. In addition, the “Gpx and SodCc mRNA level” value in data set [1] (pretreatment with 0.1 μM MV) was “persistent increase”. The “total number of genes with altered expression after MV pretreatment” value with tobacco leaf disc mRNA was approximately 170. In addition, the “growth of plants on plates containing MV” value in the data set with A. thaliana plants was “retarded”.
